Source: patent publication US12391701B2, “Chromene-based compounds, methods and uses thereof” (University of Minho, priority 2019, dated 2025)

What was measured:
Type in all cases: cell-based
[1] = system: non-neoplastic cell line MCF-10A; experiment: Cell viability assay (MTS), MCF-10A; conditions: Homo sapiens, 72 h incubation
Description: (§1) In an embodiment, the cell growth inhibition and IC50 values of the synthesised and isolated chromene-based compounds were determined as part of the evaluation of the antiproliferative activity of the isolated agents. A complete study on the structure-activity relationship was performed for all the synthesised compounds. The antiproliferative activity against MCF-7 breast cancer cell lines were analysed. […] The non-neoplastic cell line MCF-10A was also used to determine the selectivity of the compounds for the tumour cells. For compounds with an IC50 value (concentration required to reduce cell viability by 50%) higher than 20 μM, the IC50 value was not determined. Selectivity index (SI) was calculated in order to evaluate the cytotoxicity of the tested compounds.
(§2) In an embodiment, three human breast cancer cell lines Hs578T, MDA-MB-468 and MCF-7, and a normal breast cell line MCF-10A, were obtained from ATCC (American Type Culture Collection). The cancer cell lines were cultured in Dulbecco's modified Eagle medium, 4.5 g/l glucose (DMEM, Gibco) supplemented with 10% heating inactivated Fetal Bovine Serum (FBS, Gibco) and 1% antibiotic solution (Penicillin-Streptomycin, Gibco). The normal cell line was cultured in Dulbecco's Modified Eagle Medium: Nutrient Mixture F-12 (DMEM/F12, Gibco) supplemented with 5% heating inactivated FBS (Gibco), 1% antibiotic solution (Penicillin-Streptomycin, Gibco), 1% steroid hormone (Hydrocortisone, Sigma-Aldrich), 0.1% peptide hormone (Insulin, Sigma-Aldrich) and 0.01% protein complex (Cholera Toxin, Gibco). Two distinct human acute myeloid leukemia (AML) cell lines, HL-60 (FAB M2) and KG-1 (erythroleukemia-FAB M6), and one human lymphoblastic leukemia (ALL) cell line, Jurkat (T cell type), were also used. These three cell lines were obtained from German Collection of Microorganisms and Cell cultures (DMSZ®, Deutsche Sammlung von Mikroorganismen and Zellkulturen in German). Cells were cultured in RPMI 1640 medium (Biochrom®-Merck Millipore) supplemented with 10% heating inactivated FBS (Biochrom®-Merck Millipore) and 1% antibiotic/antimitotic mixture (Invitrogen®). Three human glioblastoma (GBM) cell line models, two established and commercially available cell lines (U87MG and GAMG, kind gift from Rui M. Reis) and one primary GBM culture (GLIB) were also used. GBM cells were cultures in DMEM (Biochrom-Merck Millipore), all supplemented with 10% FBS. The Renal cell carcinoma cell lines A498, 786-O, Caki-2 and HK2 were obtained from ATCC. The cancer cell line A498 was cultured in MEM medium (Biochrom®-Merck Millipore), 786-O was cultured in RPMI 1640 medium (Biochrom®-Merck Millipore), Caki-2 was cultured in Mc Coys medium (Biochrom®-Merck Millipore) and HK2 was cultured in RPMI 1640 medium (Biochrom®-Merck Millipore). All the media were supplemented with 10% heat inactivated FBS (Biochrom®-Merck Millipore) and 1% antibiotic/antimitotic mixture (Invitrogen®). All cells were grown in a humidified incubator at 37° C. and 5% CO2. For all assays, DMSO (Dimethyl Sulfoxide, Sigma-Aldrich) controls were used.
(§3) In an embodiment, cell viability assays were performed. MCF-7, Hs578T and MCF-10A cells were plated in triplicate in 96-multiwell culture plates, at 3000 cells […], or 5000 cells […] for MDA-MB-468 (100 μL/well). The cells were then allowed to adhere in complete medium, over a period of 18-20 hours. Cells were subsequently treated with 7 different concentrations (from 0.1 to 40 μM or 5 to 60 μM) of compounds or control in fresh medium. HL-60, KG-1 and Jurkat cell lines were plated in 96-multiwell culture plates at 50.000 cells/100 μL per well and treated with different concentrations (from 0.001 to 2 μM) of the compounds described (or control). Cells were plated, in triplicate, at an initial density of 2000 cells/well for GAMG, 4000 cells/well for GL18 and 6000 cells/well for U87MG, in 96-well plates, and allowed to adhere for 18-20 hours. […]

[2] = system: breast cancer cell line MCF-7; experiment: Cell viability assay (MTS), MCF-7; conditions: Homo sapiens, MCF7; 72 h incubation
Description: as §1, §2, §3

[3] = system: TNBC cell line Hs578t; experiment: Cell viability assay (MTS), Hs578t; conditions: Homo sapiens, Hs-578T; 72 h incubation
Source text: In an embodiment, for a comparison study, monomers and respective dimers were selected and further evaluated in Hs578t and MDA-MB-468 breast cell lines. […] These cell lines correspond to the basal-like subtype of breast cancer, included in the known triple negative subtype, since they are negative for Estrogen receptor (ER), progesterone receptor (PR) and Human epidermal growth factor receptor 2 (HER2) molecular markers. The clinical behaviour of these breast cancer subtype is very aggressive and there is still no specific molecular therapy available.
as §2
(§4) In an embodiment, cell viability assays were performed. MCF-7, Hs578T and MCF-10A cells were plated in triplicate in 96-multiwell culture plates, at 3000 cells […], or 5000 cells […] for MDA-MB-468 (100 μL/well). The cells were then allowed to adhere in complete medium, over a period of 18-20 hours. Cells were subsequently treated with 7 different concentrations (from 0.1 to 40 μM or 5 to 60 μM) of compounds or control in fresh medium. HL-60, KG-1 and Jurkat cell lines were plated in 96-multiwell culture plates at 50.000 cells/100 μL per well and treated with different concentrations (from 0.001 to 2 μM) of the compounds described (or control). Cells were plated, in triplicate, at an initial density of 2000 cells/well for GAMG, 4000 cells/well for GL18 and 6000 cells/well for U87MG, in 96-well plates, and allowed to adhere for 18-20 hours. Cells were then treated with different concentrations of the compounds (0.005 to 100 μM) or with control. […]

[4] = system: TNBC cell line MDA-MB-231; experiment: Cell viability assay, MDA-MB-231; conditions: Homo sapiens
[5] = system: renal carcinoma cell lines; experiment: First screen against renal carcinoma cell lines; conditions: IC50 determination not pursued
Source text: (§5) In an embodiment, the antiproliferative activity of the compounds was further determined against renal carcinoma cell lines and non-neoplastic kidney cell line.

[6] = system: renal carcinoma cell line 786-O; experiment: Cell viability (sulforhodamine B), 786-O; conditions: Homo sapiens, 786-0; Table 5
Description: as §5, §2
as §4, with “control. A498 and 786-O cells were plated at 2000 cells per mL, Caki-2 cells were plated at 3000 cells per mL and HK2 cells were plated at 2000 cells per mL in triplicate, in 96-multiwell culture plates (100 μL/well), and allowed to adhere over a period of 18-20 hours in complete medium. The cells were then treated with 7 different concentrations (from 0.1 to 40 μM or 5 to 60 μM) of compounds or control in fresh medium.” for “control.”

[7] = system: renal carcinoma cell line A498; experiment: Cell viability (sulforhodamine B), A498; conditions: Homo sapiens, Table 5
Description: as §5, §2
as §4, with “control. A498 and 786-O cells were plated at 2000 cells per mL, Caki-2 cells were plated at 3000 cells per mL and HK2 cells were plated at 2000 cells per mL in triplicate, in 96-multiwell culture plates (100 μL/well), and allowed to adhere over a period of 18-20 hours in complete medium. The cells were then treated with 7 different concentrations (from 0.1 to 40 μM or 5 to 60 μM) of compounds or control in fresh medium.” for “control.”

[8] = system: non-neoplastic cell line (HK2); experiment: Cell viability, HK2; conditions: Table 5; read-out: IC50 HK2
Description: as §5, §2
as §4, with “control. A498 and 786-O cells were plated at 2000 cells per mL, Caki-2 cells were plated at 3000 cells per mL and HK2 cells were plated at 2000 cells per mL in triplicate, in 96-multiwell culture plates (100 μL/well), and allowed to adhere over a period of 18-20 hours in complete medium. The cells were then treated with 7 different concentrations (from 0.1 to 40 μM or 5 to 60 μM) of compounds or control in fresh medium.” for “control.”

[9] = system: renal carcinoma cell line Caki-2; experiment: Cell viability (sulforhodamine B), Caki-2; conditions: Homo sapiens, Table 5
Description: as §5, §2
as §4, with “control. A498 and 786-O cells were plated at 2000 cells per mL, Caki-2 cells were plated at 3000 cells per mL and HK2 cells were plated at 2000 cells per mL in triplicate, in 96-multiwell culture plates (100 μL/well), and allowed to adhere over a period of 18-20 hours in complete medium. The cells were then treated with 7 different concentrations (from 0.1 to 40 μM or 5 to 60 μM) of compounds or control in fresh medium.” for “control.”

Row | SMILES | IC50 [1] [nM] | IC50 [2] [nM] | IC50 [3] [nM] | IC50 [4] [nM] | biological activity in a first screen [5] | IC50 [6] [nM] | IC50 [7] [nM] | IC50 [8] [nM] | IC50 [9] [nM]
1 | COc1cccc(-c2nc3c([nH]2)Cc2cccc(OC)c2O3)c1O [Compound M955] | > 30000 | 4150 | > 20000 | 15700 | did not demonstrate any biological activity |  |  |  | 
2 | Oc1ccc(Cl)cc1-c1nc2c([nH]1)Cc1cc(Cl)ccc1O2 [Compound M1143] |  | > 30000 | > 30000 | > 30000 | did not demonstrate any biological activity |  |  |  | 
3 | Oc1ccccc1-c1nc2c([nH]1)Cc1ccccc1O2 [Compound M1159] | > 30000 | 3680 |  | 10400 |  | 3040 | 13600 | 5610 | 
4 | COc1ccc2c(c1)Cc1[nH]c(-c3cc(OC)ccc3O)nc1O2 [Compound M1220] | > 30000 | 5850 | > 30000 |  | did not demonstrate any biological activity |  |  |  | 
5 | Oc1ccc(Br)cc1-c1nc2c([nH]1)Cc1cc(Br)ccc1O2 [Compound M1221] |  | > 30000 |  | > 30000 | did not demonstrate any biological activity |  |  |  | 
6 | COc1cccc2c1Oc1nc(-c3cccc(F)c3)[nH]c1C2 [MC349, 2-(3-fluorophenyl)-5-methoxy-3,9-dihydrochromeno[2,3-d]imidazoles] | 2300 | 770 | 640 | 1230 |  | 446 | 1120 | 2630 | 440
7 | COc1cccc2c1Oc1nc(-c3cccc(O)c3)[nH]c1C2 [MC359, 3-(5-methoxy-3,9-dihydrochromeno[2,3-d]imidazol-2-yl)phenol] | 6660 | 2820 | 3480 | 2700 |  | 3210 | 2450 | 5290 | 2340
8 | COc1cccc2c1Oc1nc(-c3ccc(Cl)cc3)[nH]c1C2 [MC412, 2-(4-chlorophenyl)-5-methoxy-3,9-dihydrochromeno[2,3-d]imidazoles] | 1740 | 440 | 980 | 1670 |  | 32 | 290 | 1630 | 39
